Structure (SMILES) | melting point [°C]
N#CSCOc1cc(Cl)c(Cl)cc1Cl | 103 to 105
O=C1NC(c2ccccc2)CN1CCO (stereo unspecified) | 60 to 63
CCCN(Cc1ccc(-c2ccccc2-c2nc(=O)o[nH]2)cc1)c1nc(C)ncc1C(=O)O | 182 to 186
CC(C)C[C@H](NC(=O)[C@@H]1CCC(=O)O1)C(=O)OC(C)(C)C | 79 to 81
COc1ccccc1NS(=O)(=O)c1ccc(N2CCNC2=O)cc1 | 209 to 211
Cc1ccc(S(=O)(=O)N(OC(C)C)c2ccc([N+](=O)[O-])cc2Cl)cc1 | 160 to 162
CCCCCCCCc1c(C)[nH]c(C)c(I)c1=O | 224 to 226
CCOc1c(C(O)CCc2ccn(C)c2)c(OCCN2CCCCC2)c(OC)c2occc12 (stereo unspecified) | 88
COc1ccc(C2(c3ccc(OC)cc3)CCN(C[C@@H]3C=C4c5cccc6[nH]c(Cl)c(c56)C[C@H]4N(C)C3)CC2)cc1 | > 204
COC(=O)NC1=NC(c2ccc3ccccc3c2)CN1 (stereo unspecified) | 227 to 228
CSCc1cnc2ccccc2c1O | 196 to 197
C=C(C)C(=O)Nc1ccc(NC(=O)C(=C)C)cc1 | 254 to 257
Cc1cccc(C)c1NC(=O)CCC1CCC(=O)N1 (stereo unspecified) | 206 to 208
CC(C)Oc1ccc(Oc2ccc3c(c2)c(C(=O)O)c(CC(=O)O)n3-c2ccc(C(C)C)cc2)cc1 | 205 to 210
COc1c2c(cc3c1OCO3)C(O)CN(C)C2 (stereo unspecified) | 151 to 153
COc1cc2c(cc1OCc1ccccc1)CCN(Cc1cccc([N+](=O)[O-])c1)C2 | 109 to 110
CCCCCCCCNC(=O)NCCCCC | 65 to 65.5
OC1(CNCc2ccccc2)CCN(CCCc2c[nH]c3ccc(-n4cnnc4)cc23)C1 (stereo unspecified) | > 61
COc1cccc(CN[C@H](C)c2ccc([N+](=O)[O-])cc2)c1O | 112 to 114
NC(=O)C1CCCc2c(C(=O)c3ccccc3)cccc21 (stereo unspecified) | 146 to 148
CC(=O)OC1CSC(Oc2ccc(-c3cncnc3)nc2Cl)C(OC(C)=O)C1OC(C)=O (stereo unspecified) | 168
O=S(=O)(Nc1ccc2cnccc2c1)c1ccccc1 | 204 to 206
COc1ccc2c(c1Cl)S(=O)(=O)c1ccccc1N2C | 244

Structure (SMILES) | melting point [°C]
CC(=O)CC(=O)Nc1cccc(OC(=O)NC(C)C)c1 | 161
Cc1ccc(SN=C2C(=O)N3C(C(=O)OC(c4ccccc4)c4ccccc4)=C(CSc4nnnn4C)CSC23)cc1 (stereo unspecified) | 154 to 155
CCOc1cc2c(cc1OCC)C1CC(=O)C(CC)CN1CC2 (stereo unspecified) | 115 to 118
CC1=NCC2CNC(c3ccccc3F)c3cc(Cl)ccc3N12 (stereo unspecified) | 108 to 110
CCCCc1oc2cc(Br)ccc2c1CC1(c2ccc(OC)cc2)OCN=C1Br (stereo unspecified) | 93 to 95
N#CCc1coc2ccc3c(c12)C=CCO3 | 99 to 101
CC1(C)Oc2ccsc2C(N2CCCC2=O)C1OC(=O)c1ccccc1 (stereo unspecified) | 130 to 132
COc1cc(N)c(Cl)cc1-c1nn(C2CC3CCC(C2)N3C)c(=O)o1 (stereo unspecified) | 208
COc1ccc(CCN2CCN(c3cccccc3=O)CC2)cc1OC | 83 to 85
CCCOc1ccccc1-c1nc(O)cc(C(N)=O)n1 | 234
CCOC(=O)c1ccc(CCCC2NC(=O)CS2)cc1 (stereo unspecified) | 99 to 100
Cc1nnc2n1-c1ccc(Br)cc1C(c1ccccc1F)=NC2 | 213 to 214
Clc1ccc(C(=Cc2ccc(Cl)cc2Cl)CBr)cc1 | 128
Cc1nc(-n2ccc3c(O)cccc3c2=O)sc1C(=O)NCc1ccccc1 | 218 to 221
Cn1nccc1-c1ccc2c(ccn2-c2ccc(F)cc2)c1 | 135 to 137
O=C1OC(=O)[C@H](Cc2ccccc2)C[C@H]1Cc1ccccc1 | 172 to 174
CCC(NS(=O)(=O)c1ccc(Cl)cc1)P(=O)(Oc1ccccc1)Oc1ccccc1 (stereo unspecified) | 136 to 138
CCCN(CCC)[C@@H]1CCc2ccc(C(N)=O)cc2C1 | 132
c1ccc(Oc2ccc3[nH]c4c(c3c2)CNCC4)cc1 | 179
NC(=O)c1ncn2c1[C@@H]1CCN1C(=O)c1ccccc1-2 | 228 to 230
O=C(Nc1nccs1)c1nc(-c2ccc(N3CCCCCC3)cc2)[nH]c1-c1ccc(Cl)cc1 | 246 to 247
CCOC(=O)C=Cc1cccc(OCc2nc(-c3ccccc3)oc2C)c1 | 91 to 92

The remaining lines, values ahead:

melting point [°C] | Structure (SMILES)
76 to 79 | N#CCc1ccccc1NC(=O)C(F)(F)C(F)(F)C(F)(F)F
172 to 173 | Cc1oc(-c2ccccc2)nc1COc1ccc2cc(CC3OC(=O)NC3=O)oc2c1 (stereo unspecified)
215 to 216 | Cc1ccc(Nc2nnc(-c3ccc(SC(F)(F)F)cc3)s2)cc1Cl
165 to 166 | ICCOc1ccc(C2=C(c3ccccc3)CCCc3cc(OC4CCCCO4)ccc32)cc1 (stereo unspecified)
75 to 77 | COc1ccc(C(C)(C)C)cc1S(=O)(=O)Cl
59.4 | Cc1c(C(F)(F)F)ncn1-c1ncc(C(F)(F)F)cc1Cl
84 to 85 | COc1cc(NCCCCCCN2C(=O)c3ccccc3C2=O)c2nccc(C)c2c1
196 to 198 | CCCn1nc2c(N)nc3ccccc3c2c1CCCc1cc(-c2cccnc2)on1
69 to 70 | CCCCC(CC)COCCCN1C(C)=CC(=C(C#N)C(=O)OCC(CC)CCCC)C=C1C (stereo unspecified)
130 to 131 | COc1ccc(C(=NOC(C)=O)c2cc(F)ccc2F)c(O)c1Cl
118 to 120 | CC(C)(C)OC(=O)N1CCC2(CC1)NC(c1nc(-c3ccccc3)c[nH]1)Cc1c2[nH]c2ccccc12 (stereo unspecified)
222 to 224 | CN1C(=O)C2c3c([nH]c4ncccc34)-c3nccn3C2C1=O (stereo unspecified)
153 to 160 | CC(=O)NC1(C#N)CC(C)(C)NC(C)(C)C1
142 to 143 | FC(F)(F)c1cccc2c(Cl)c3ccccc3c(Cl)c12
143 to 144 | Cc1ccc(-c2cccc3cc(Cc4cccc(C(F)(F)F)c4)sc23)cc1C(=O)NCC(N)=O
224 to 228 | CCCCC(=O)Nc1nc2ccc(Cl)cc2nc1N
97 to 98 | O=C(CCCCl)Nc1cn(-c2cccnc2)nc1Cl
126 to 130 | Cc1ccc(C(=O)[C@@](O)(C(=O)O)[C@H](O)C(=O)O)cc1
198 to 202 | CN(C)C(=O)c1ccc(C=O)cc1

melting point [°C] | Structure (SMILES)
206 to 208 | CC(=O)SCC(Cc1ccc(C)cc1)C(=O)Nc1cccc(C(=O)O)c1C (stereo unspecified)
163 to 165 | CC(=O)CN1C(=O)c2ccc3ccccc3c2S1(=O)=O
150 to 160 | O=c1[nH]nc(-c2ccc(NN=C(c3ccc(O)cc3)c3ccc(O)cc3O)cc2)c2ccccc12
175 to 176 | Cc1ccc(F)cc1C(C)(C)CC(O)(Cn1ccc(=O)c2sccc21)C(F)(F)F (stereo unspecified)
53 | CN1CCC(OC(c2ccccc2)c2nc3ccccc3[nH]2)C1 (stereo unspecified)
208 to 210 | S=c1cc(Oc2c(Cl)cccc2Cl)c2cc(Cl)ccc2s1
181 to 183 | O=C(O)COCC(=O)NC12CC3CC(CC(C3)C1)C2
100 | CCOC(=O)C(C)(C)Oc1ccc(-c2ccc(CCNC(=O)c3ccccc3)cc2)cc1
167 to 169 | O=S(=O)(c1cc(C(F)(F)F)[nH]c1-c1ccc(Cl)cc1)C(F)(F)F
217 to 219 | COc1ccnc(CCc2nc3cc(-c4ccc(S(=O)(=O)N5CCN(c6ccc(C#N)cc6)CC5)cc4)cnc3[nH]2)c1
102 | N#Cc1ccccc1C(=O)c1ccc(S)cc1
126 to 128 | CC(C)(C)OC(=O)N1CCN(c2ncnc3c2cnn3Cc2cccc(Br)n2)CC1
141 to 143 | ClCCCOc1ccc(-c2nc3ccccc3s2)cc1
163 to 166 | Nc1cccc(Cn2c(-c3ccc(C4=CC=CNC4)cc3)ccc2-c2ccccc2Cl)n1
89 to 91 | Clc1ccc(-c2ccnc(CN3CCC(c4ccc(Cl)cc4)CC3)c2)cc1
126 to 130 | COc1ccc2ccc(O)c(C3NCCc4ccccc43)c2c1 (stereo unspecified)
215 to 217 | O=Cc1ccc(OC(F)F)c2oc3ccncc3c12
90 to 95 | CN(CCC(=O)O)C(=O)N(c1ccc(Cl)cc1)C(C)(C)C
126 to 128 | CC(C)C(=O)Nc1ccc(Br)c(C(F)(F)F)c1

melting point [°C] | Structure (SMILES)
91 to 93 | CC(C)CN1C(=O)CC[C@H]1COC(c1ccccc1)(c1ccccc1)c1ccccc1
221 | CS(=O)(=O)c1cc(C(=O)O)cc(N=Cc2ccco2)c1Cl
74.5 to 77 | CCOC(=O)c1ccc2snnc2c1
168 | O=C(O)CNC(=O)Nc1cccc(C(=O)OCc2ccccc2)c1
110 to 112 | O=C(O)c1nn(-c2ccc(F)cc2F)c2c1[C@H]1CC[C@@H]2C1
79 | C=CCn1c(C)nc2c3c(ccc21)[C@@H](OCCOC)[C@H](O)[C@@H](c1ccccc1)O3
115 to 117 | CCCOc1nccc2c1C(c1ccccc1C(F)(F)F)C(C(=O)OCC)=C(C)N2 (stereo unspecified)
95 to 98 | O=C(CCCCC1SCC2NC(=O)NC21)NCCOCCOCCN1C(=O)C=C(Br)C1=O (stereo unspecified)
147 | CC(=O)c1ccc(O)c(-n2nc3ccccc3n2)c1
144 to 146 | CC1(C)CCC(C)(C)c2cc(COc3c(C(=O)O)cccc3-c3ccccc3)ccc21
197 to 198 | COc1ccc(S(=O)(=O)N2c3ccccc3-c3ccc(F)cc3[C@@H]2C)cc1
207 to 209 | COc1cccc(C(=O)Nc2ccc(N3CCN(CC(N)=O)CC3)cc2)c1-c1ccc(C(C)C)cc1
245 to 247 | CN1C(=O)C(c2ccncc2)(c2cccc(O)c2)N=C1N (stereo unspecified)
200 to 202 | COC1=Cc2ccc(Cl)cc2C(O)(C2CCN(C)CC2)c2ccsc21 (stereo unspecified)
228 to 235 | O=C1NC(=O)c2c1c(-c1c(O)cccc1Cl)cc1[nH]c3ccc(O)cc3c21
166 | CC1(C)CCc2cccc3c(-c4ccc(F)cc4)c(C=CC4CC(O)CC(=O)O4)n1c23 (stereo unspecified)
204 to 209 | O=[N+]([O-])c1cc(-c2nnc(Cl)cc2O)ccc1Cl
89 | CCCCNc1ccc2cc(Cl)cnc2c1C#N
